According to US20250042887A1, “GLYCOGEN SYNTHASE KINASE-3 (GSK3) INHIBITOR COMPOUNDS FOR USE AS ANTIVIRAL AGENTS” (priority 2021, published 2025):
“Also recorded” adds a separate entry of the source. Like-named read-outs stand apart in the source and are kept apart here. Where no end group is shown, it is not given here. [ ]: non-standard residue; d: D form. pT = C[C@@H](OP(=O)(O)O)[C@H](N)C(=O)O; pS = N[C@@H](COP(=O)(O)O)C(=O)O

Experiments:
SARS-CoV-2 [1] = assay: Dose-response inhibition in three SARS-CoV-2 infected immortalized cell lines (Huh-7.5.1, Caco-2, Calu-3); format: cell-based; conditions: Severe acute respiratory syndrome coronavirus 2; Huh-7.5.1, Caco-2 and Calu-3 cells; read-out: ED50 in all investigated cell lines
HCoV-229E [2] = format: cell-based, human coronavirus 229E (HCoV-229E)
SARS-CoV-2 [3] = assay: SARS-CoV-2 infected primary donor-derived colon organoids, intracellular N protein; format: cell-based; conditions: donor intestinal organoids monolayer, 72-hours post infection, dose-dependent
HCoV-229E [4] = assay: Dose-response of HCoV-229E viral load (dsRNA) in Huh-7.5.1 cells; format: cell-based, human coronavirus 229E (HCoV-229E); conditions: Human coronavirus 229E, read-out: ED50 (HCoV-229E)
Huh-7.5.1 cells = conditions: single dose of 10 μM
Experimental: High content screening methodology and parameters. Monitoring of the total number of cells (based on nuclei staining) and number of virus infected cells (based on dsRNA and Nucleocapsid staining) was performed using the CellInsight CX7™ High Content Screening platform (Thermo Fisher™), as previously described (33042061). Shortly, nuclei are identified and counted using the 350′461 nm wavelength (Hoechst 33342™); cell debris and other particles are deducted based on a size filter tool. A Region of Interest (ROI, or “circle”) is then drawn around each host cell and validated against the bright field image to correspond with host cell membranes. The ROI encompasses the “spots”, where dsRNA (485/521 nm wavelength) and SARS-CoV-2 nucleocapsid (533/588 nm wavelength) are localized. Finally, the software (HCS Studio Cell Analysis Software™, version 4.0) identifies, counts and measures the pixel area and intensity of the spots within each circle. The fluorescent spot area measured within each cell (circle) is then added and quantified for each well. The total circle spot intensity of each well corresponds to the viral load, and is normalized to non-infected cells, and to cells infected with no compound. Nuclei stain (Hoechst 33342™) was used to quantify cell loss (due to cytotoxicity or loss of adherence), and to normalize the changes in viral load resulting from a decrease in cell numbers.

SARS-CoV-2 [5] = assay: High-content screen of GSK3β-focused library in SARS-CoV-2 infected Huh-7.5.1 cells (dsRNA or nucleocapsid); format: cell-based; conditions: Severe acute respiratory syndrome coronavirus 2, single dose of 10 μM, Huh-7.5.1 cells
in vitro = conditions: human
SARS-CoV-2 [6] = assay: Dose-response of SARS-CoV-2 viral load (intracellular N protein) in Huh-7.5.1 cells; format: cell-based; conditions: for EC50: Severe acute respiratory syndrome coronavirus 2, Huh-7.5.1, Huh-7.5.1 cells, intracellular N protein, read-out: ED50 (SARS-CoV-2)
HCoV-229E [7] = assay: High-content screen of GSK3β-focused library in HCoV-229E infected Huh-7.5.1 cells (intracellular dsRNA); format: cell-based, human coronavirus 229E (HCoV-229E); conditions: Human coronavirus 229E, single dose of 10 μM, Z′ 0.7
SARS-CoV-2 [8] = assay: Viral titer released from 48-hour SARS-CoV-2 infected Calu-3 cells; format: cell-based; conditions: 48 hours after infection, 100 μM
[9] = tested on: SARS-CoV-2 Spike S1 protein expression; format: cell-based
SARS-CoV-2 [10] = tested on: SARS-CoV-2; design: effect on N protein phosphorylation and SARS-CoV-2 replication: dose or concentration left out as unconfirmed; conditions: cited from earlier work
[11] = molecular target: T1, extracellularly-regulated kinase-1 (ERK1) (Homo sapiens, UniProt P27361); assay: In vitro phosphorylation of nucleocapsid peptides, ADP-Glo, ERK1; format: biochemical; conditions: peptide ~250 μM, 250 μM ATP, 30 min at 30° C.; duplicate measurements
T1 construct: GST; purchased SignalChem M29-10G
T1 sequence (P27361 whole entry): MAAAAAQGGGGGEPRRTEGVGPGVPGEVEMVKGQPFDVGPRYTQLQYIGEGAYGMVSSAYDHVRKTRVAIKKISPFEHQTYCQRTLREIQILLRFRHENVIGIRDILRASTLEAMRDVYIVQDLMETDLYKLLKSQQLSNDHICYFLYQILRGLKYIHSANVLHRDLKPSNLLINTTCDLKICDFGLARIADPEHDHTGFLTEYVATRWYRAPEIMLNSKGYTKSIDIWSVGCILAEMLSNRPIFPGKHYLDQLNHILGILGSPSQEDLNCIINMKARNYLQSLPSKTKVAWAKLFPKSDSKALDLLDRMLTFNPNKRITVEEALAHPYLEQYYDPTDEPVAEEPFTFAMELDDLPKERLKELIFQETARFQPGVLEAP

[12] = molecular target: cAMP-dependent protein kinase catalytic subunit-alpha (PKACa) (Homo sapiens, UniProt P17612); assay: In vitro phosphorylation of nucleocapsid peptides, ADP-Glo, PKACa; format: biochemical; conditions: peptide ~250 μM, 250 μM ATP, 30 min at 30° C.; duplicate measurements
casein kinase 1-delta = molecular target: T2, casein kinase 1-delta (Homo sapiens, UniProt P48730); assay: In vitro phosphorylation of nucleocapsid peptides, ADP-Glo, CK1d; format: biochemical; conditions: peptide ~250 μM, 250 μM ATP, 30 min at 30° C.; duplicate measurements
T2 construct: GST; purchased SignalChem C65-10G
T2 sequence (P48730 whole entry): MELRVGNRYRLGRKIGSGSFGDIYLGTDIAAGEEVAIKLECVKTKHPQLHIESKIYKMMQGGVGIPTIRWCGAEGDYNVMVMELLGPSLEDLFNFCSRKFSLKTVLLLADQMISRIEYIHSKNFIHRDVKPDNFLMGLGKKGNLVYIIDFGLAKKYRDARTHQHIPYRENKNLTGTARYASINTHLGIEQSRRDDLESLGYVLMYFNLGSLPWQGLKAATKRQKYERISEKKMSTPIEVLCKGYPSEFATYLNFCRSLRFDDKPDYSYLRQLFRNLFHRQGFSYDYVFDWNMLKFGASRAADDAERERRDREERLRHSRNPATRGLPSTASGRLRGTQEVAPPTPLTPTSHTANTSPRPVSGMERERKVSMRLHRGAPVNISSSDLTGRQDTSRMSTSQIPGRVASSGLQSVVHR

[13] = molecular target: cyclin-dependent kinase 2/cyclin A2 (CDK2/A2) (Homo sapiens, UniProt P24941); assay: In vitro phosphorylation of nucleocapsid peptides, ADP-Glo, CDK2/cyclin A2; format: biochemical; conditions: peptide ~250 μM, 250 μM ATP, 30 min at 30° C.; duplicate measurements
[14] = molecular target: T3, protein kinase C-alpha (PKC α) (Homo sapiens, UniProt P17252); assay: In vitro phosphorylation of nucleocapsid peptides, ADP-Glo, PKCa; format: biochemical; conditions: for Relative Phosphorylation to No Kinase Control, PKCa: Mean ± S.Dev. (n = 3), no kinase control = 100; for Relative Phosphorylation to Autophosphorylation Control (set at 100), PKCa: peptide ~250 μM, 250 μM ATP, 30 min at 30° C., duplicate measurements
T3 construct: GST; purchased SignalChem P61-18G

[15] = molecular target: T4, casein kinase 1-gamma-1 (CK1γ1) (Homo sapiens, UniProt Q9HCP0); assay: In vitro phosphorylation of nucleocapsid peptides, ADP-Glo, CK1g1; format: biochemical; conditions: peptide ~250 μM, 250 μM ATP, 30 min at 30° C.; duplicate measurements
T4 construct: GST; purchased SignalChem C68-11G
T4 sequence (Q9HCP0 whole entry): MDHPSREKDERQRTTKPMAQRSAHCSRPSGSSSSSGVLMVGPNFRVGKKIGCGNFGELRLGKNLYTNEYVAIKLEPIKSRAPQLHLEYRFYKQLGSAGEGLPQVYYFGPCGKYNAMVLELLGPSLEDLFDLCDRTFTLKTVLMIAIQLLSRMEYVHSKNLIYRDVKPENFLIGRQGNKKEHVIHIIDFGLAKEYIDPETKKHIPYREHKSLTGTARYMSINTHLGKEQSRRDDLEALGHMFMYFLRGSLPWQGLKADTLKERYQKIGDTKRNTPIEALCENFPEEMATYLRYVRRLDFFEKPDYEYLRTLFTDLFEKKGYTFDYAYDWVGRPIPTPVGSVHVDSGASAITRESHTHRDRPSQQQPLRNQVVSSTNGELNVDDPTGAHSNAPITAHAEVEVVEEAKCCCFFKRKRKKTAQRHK

[16] = molecular target: T5, glycogen synthase kinase-3-beta (Homo sapiens, UniProt P49841); assay: In vitro phosphorylation of nucleocapsid peptides, ADP-Glo, GSK3b; format: biochemical; conditions: for Relative Phosphorylation to No Kinase Control, GSK3b: Mean ± S.Dev. (n = 3), no kinase control = 100; for Relative Phosphorylation to Autophosphorylation Control (set at 100), GSK3b: peptide ~250 μM, 250 μM ATP, 30 min at 30° C., duplicate measurements
T5 construct: GST; purchased SignalChem Go9-10G
T5 sequence (P49841 whole entry): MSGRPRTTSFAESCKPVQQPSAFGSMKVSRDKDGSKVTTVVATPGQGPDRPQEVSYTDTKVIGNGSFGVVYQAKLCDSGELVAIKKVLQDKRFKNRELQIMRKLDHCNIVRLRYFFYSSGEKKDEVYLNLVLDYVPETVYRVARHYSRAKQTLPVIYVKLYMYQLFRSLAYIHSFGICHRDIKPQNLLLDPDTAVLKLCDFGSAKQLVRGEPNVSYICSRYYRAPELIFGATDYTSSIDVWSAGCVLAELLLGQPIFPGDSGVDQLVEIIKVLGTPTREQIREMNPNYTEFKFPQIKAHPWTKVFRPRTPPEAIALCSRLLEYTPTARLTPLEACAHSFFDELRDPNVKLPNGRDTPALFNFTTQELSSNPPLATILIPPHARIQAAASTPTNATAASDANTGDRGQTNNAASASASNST

PKCa + GSK3b = assay: In vitro phosphorylation of nucleocapsid peptides, ADP-Glo, PKCa + GSK3b combined; format: biochemical, human; conditions: Mean ± S.Dev. (n = 3); no kinase control = 100
[17] = molecular target: T6, casein kinase 2-alpha-1 (CK2a1) (Homo sapiens, UniProt P68400); assay: In vitro phosphorylation of nucleocapsid peptides, ADP-Glo, CK2a1; format: biochemical; conditions: peptide ~250 μM, 250 μM ATP, 30 min at 30° C.; duplicate measurements
T6 construct: GST; purchased SignalChem C70-10G
T6 sequence (P68400 whole entry): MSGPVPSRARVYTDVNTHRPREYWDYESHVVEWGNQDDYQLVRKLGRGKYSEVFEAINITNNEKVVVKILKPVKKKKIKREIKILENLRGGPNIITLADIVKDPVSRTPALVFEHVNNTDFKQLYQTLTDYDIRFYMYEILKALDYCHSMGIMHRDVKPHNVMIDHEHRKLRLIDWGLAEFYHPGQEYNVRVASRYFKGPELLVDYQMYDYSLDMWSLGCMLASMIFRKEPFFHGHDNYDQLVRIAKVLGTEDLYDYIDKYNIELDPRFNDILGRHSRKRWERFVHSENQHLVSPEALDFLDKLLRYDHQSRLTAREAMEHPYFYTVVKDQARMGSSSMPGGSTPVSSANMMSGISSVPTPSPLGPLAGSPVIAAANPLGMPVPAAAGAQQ

[18] = molecular target: T7, casein kinase 1-alpha-1 (CK1a1) (Homo sapiens, UniProt P48729); assay: In vitro phosphorylation of nucleocapsid peptides, ADP-Glo, CK1a1; format: biochemical; conditions: peptide ~250 μM, 250 μM ATP, 30 min at 30° C.; duplicate measurements
T7 construct: GST; purchased SignalChem C64-10G
T7 sequence (P48729 whole entry): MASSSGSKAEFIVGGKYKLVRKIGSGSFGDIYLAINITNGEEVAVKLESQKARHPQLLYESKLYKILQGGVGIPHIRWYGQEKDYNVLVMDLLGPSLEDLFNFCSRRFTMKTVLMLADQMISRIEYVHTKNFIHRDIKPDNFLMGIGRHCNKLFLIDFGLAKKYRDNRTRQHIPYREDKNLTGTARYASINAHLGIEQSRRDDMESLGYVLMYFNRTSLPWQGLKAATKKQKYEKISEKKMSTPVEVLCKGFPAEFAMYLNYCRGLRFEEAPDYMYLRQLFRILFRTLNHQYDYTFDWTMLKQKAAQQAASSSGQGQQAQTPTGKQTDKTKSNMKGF

[19] = Z′ 0.3, read-out: SARS-CoV-2 inhibition (% dsRNA)
[20] = average of screens 1 and 2, read-out: Average SARS-CoV-2 Nucleocapsid inhibition
[21] = screen 1, Z′ 0.7, read-out: SARS-CoV-2 inhibition (% Nucleocapsid) 1
[22] = screen 2, Z′ 0.5, read-out: SARS-CoV-2 inhibition (% Nucleocapsid) 2

Molecule	EC50 (HCoV-229E [4]) [µM]	Average cell loss (%) (Huh-7.5.1 cells)	inhibition at 10 µM (SARS-CoV-2 [5]; [19]) [%]	inhibition at 10 µM (SARS-CoV-2 [5]; [20]) [%]	inhibition at 10 µM (SARS-CoV-2 [5]; [21]) [%]	inhibition at 10 µM (SARS-CoV-2 [5]; [22]) [%]	EC50 (SARS-CoV-2 [6]) [µM]	inhibition at 10 µM (HCoV-229E [7]) [%]	Relative Phosphorylation to Autophosphorylation Control (set at 100), ERK1 [11]	Relative Phosphorylation to Autophosphorylation Control (set at 100), PKACa [12]	Relative Phosphorylation to Autophosphorylation Control (set at 100), CK1d (casein kinase 1-delta)	Relative Phosphorylation to Autophosphorylation Control (set at 100), CDK2 + Cyclin A2 [13]	Relative Phosphorylation to No Kinase Control, PKCa [14]	Relative Phosphorylation to No Kinase Control, GSK3b [16]	Relative Phosphorylation to Autophosphorylation Control (set at 100), GSK3b [16]	other results
CSc1ccc(-n2cnc3ccc(-c4nnc(CCc5cccc(C#N)c5)o4)cc32)cc1 [Compound P-0717632]	~3	24.4	68.2	79.3	75.2	83.3	~3	97.6								EC50 (SARS-CoV-2 [1]): 4 to 7 µM; average Combination Index (CI) (HCoV-229E [2]): 0.7; effect on intracellular N protein levels in organoids (SARS-CoV-2 [3]): greatly decrease intracellular N protein levels; CC50 (in vitro): > 100 µM; SARS-CoV-2 Selectivity Index SI (CC50 over ED50) (SARS-CoV-2 [6]; Huh 7.5.1 cells): 68; ED80 (SARS-CoV-2 [6]; SARS-CoV-2 infected Huh-7.5.1 cells): 10 µM; reduction of release of infective particles (SARS-CoV-2 [8]): 2 log; Spike S1 protein expression [9]: blocked; also recorded: reduced
C[S+]([O-])c1ccc(-c2coc3ccc(-c4nnc(SCc5cccc(F)c5)o4)cc23)cc1 (stereo not shown) [Compound P-7657632]	~3	25.4	100	93.1	100	86.2	~3	100								
CSc1ccc(-c2coc3ccc(-c4nnc(N)o4)cc23)cc1Cl [Compound P-9071942]	~3	29.9	100	94.5	100	89.1	~3	94.2								
Cn1cc(C2=C(c3cn(C4CCN(Cc5ccccn5)CC4)c4ccccc34)C(=O)NC2=O)c2ccccc21 [Enzastaurin]																effect on infection (SARS-CoV-2 [10]; A549-ACE2 human lung cancer-derived cell line and Vero E6 cells, reference [7]): reduced infection; effect on N protein phosphorylation and SARS-CoV-2 replication (SARS-CoV-2 [10]; reference [7]): blocked N protein phosphorylation and SARS-CoV-2 replication
[Cl-].[Li+] [Lithium chloride]																IC50 (SARS-CoV-2 [10]; from reference [7], read-out: IC50 to inhibit N protein phosphorylation and SARS-CoV-2 replication in cells): 10000 µM
RNSTPGSSRGT(pS)PAR (RNSTPGSSRGT[pS]PAR) [SCV2-N [195-209]-pS206, synthetic peptide modeled after SARS-CoV-2 nucleocapsid protein phosphorylation sites, pre-phosphorylated at S206]									100	205	105	100	1531 ± 47	24,082 ± 381	1068	Relative Phosphorylation to Autophosphorylation Control (set at 100), CK1g1 [15]: 105
RNSTPGSSRGTSPAR [SCV2-N [195-209], synthetic peptide modeled after SARS-CoV-2 nucleocapsid protein phosphorylation sites]									102	151	101	104	3301 ± 114	3291 ± 57	137	Relative Phosphorylation to No Kinase Control, PKCa + GSK3b (PKCa + GSK3b): 4262 ± 27; Relative Phosphorylation to Autophosphorylation Control (set at 100), CK1g1 [15]: 104
SSRSRNSSRNS(pT)PG (SSRSRNSSRNS[pT]PG) [SCV2-N [187-200]-pT198, synthetic peptide modeled after SARS-CoV-2 nucleocapsid protein phosphorylation sites, pre-phosphorylated at T198]									100	157	152	101	7032 ± 319	23,031 ± 486	1042	Relative Phosphorylation to Autophosphorylation Control (set at 100), CK2a1 [17]: 102; Relative Phosphorylation to Autophosphorylation Control (set at 100), PKCa [14]: 553; Relative Phosphorylation to Autophosphorylation Control (set at 100), CK1a1 [18]: 250
SSRSRNSSRNSTPG [SCV2-N [187-200], synthetic peptide modeled after SARS-CoV-2 nucleocapsid protein phosphorylation sites]									100	485	100	100	12,687 ± 486	2573 ± 49	108	Relative Phosphorylation to Autophosphorylation Control (set at 100), CK2a1 [17]: 103; Relative Phosphorylation to No Kinase Control, PKCa + GSK3b (PKCa + GSK3b): 3692 ± 61; Relative Phosphorylation to Autophosphorylation Control (set at 100), PKCa [14]: 1080; Relative Phosphorylation to Autophosphorylation Control (set at 100), CK1a1 [18]: 145
